Source: publication PMC10341549, “Inhibitory Investigations of Acyl-CoA Derivatives against Human Lipoxygenase Isozymes” (International Journal of Molecular Sciences, 2023)
Read-outs that look alike come from different tables or passages of the source.

Columns and labels:
h5-LOX = biological target: T1, h5-LOX (Homo sapiens, UniProt P09917, C241A/C562A/D45S/DEL41-43/F15H/K654E/K655N/K656L/L77S/N44G/W14E/W76G); assay: IC50 determination against h5-LOX; type: biochemical; conditions: 10 μM AA, 50 mM HEPES pH 7.5, 200 µM ATP, ammonium-sulfate precipitate enzyme, 22 °C
T1 sequence (P09917 with tags, fused parts or gaps W14E/F15H/DEL41-43/N44G/D45S/W76G/L77S/C241A/C562A/K654E/K655N/K656L): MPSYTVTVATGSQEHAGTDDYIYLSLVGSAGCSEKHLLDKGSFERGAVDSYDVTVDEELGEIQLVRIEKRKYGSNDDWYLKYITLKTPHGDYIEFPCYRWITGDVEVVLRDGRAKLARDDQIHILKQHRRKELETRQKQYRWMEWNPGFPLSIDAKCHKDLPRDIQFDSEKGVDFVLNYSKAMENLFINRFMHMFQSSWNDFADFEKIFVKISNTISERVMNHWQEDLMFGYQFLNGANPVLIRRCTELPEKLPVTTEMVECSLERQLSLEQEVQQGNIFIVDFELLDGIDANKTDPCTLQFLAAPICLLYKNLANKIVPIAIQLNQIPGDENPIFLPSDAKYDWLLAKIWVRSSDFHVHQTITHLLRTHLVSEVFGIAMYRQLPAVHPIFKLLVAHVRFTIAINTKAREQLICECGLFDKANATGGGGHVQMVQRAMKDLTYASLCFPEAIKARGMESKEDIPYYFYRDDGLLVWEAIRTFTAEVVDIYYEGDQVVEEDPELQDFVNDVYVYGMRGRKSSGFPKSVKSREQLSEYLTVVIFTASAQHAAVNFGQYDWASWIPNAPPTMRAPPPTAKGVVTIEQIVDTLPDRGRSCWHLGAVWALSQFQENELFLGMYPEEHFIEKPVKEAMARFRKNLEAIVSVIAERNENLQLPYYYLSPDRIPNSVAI

h12-LOX = biological target: T2, h12-LOX (Homo sapiens, UniProt P18054); design: method as in PMID 37506345; conditions: 10 μM AA, 25 mM HEPES pH 8.00, 0.01% Triton X-100, 22 °C, published previously, ref [30], cited from earlier work
T2 construct: His tag; made in house
T2 sequence (P18054 1-663): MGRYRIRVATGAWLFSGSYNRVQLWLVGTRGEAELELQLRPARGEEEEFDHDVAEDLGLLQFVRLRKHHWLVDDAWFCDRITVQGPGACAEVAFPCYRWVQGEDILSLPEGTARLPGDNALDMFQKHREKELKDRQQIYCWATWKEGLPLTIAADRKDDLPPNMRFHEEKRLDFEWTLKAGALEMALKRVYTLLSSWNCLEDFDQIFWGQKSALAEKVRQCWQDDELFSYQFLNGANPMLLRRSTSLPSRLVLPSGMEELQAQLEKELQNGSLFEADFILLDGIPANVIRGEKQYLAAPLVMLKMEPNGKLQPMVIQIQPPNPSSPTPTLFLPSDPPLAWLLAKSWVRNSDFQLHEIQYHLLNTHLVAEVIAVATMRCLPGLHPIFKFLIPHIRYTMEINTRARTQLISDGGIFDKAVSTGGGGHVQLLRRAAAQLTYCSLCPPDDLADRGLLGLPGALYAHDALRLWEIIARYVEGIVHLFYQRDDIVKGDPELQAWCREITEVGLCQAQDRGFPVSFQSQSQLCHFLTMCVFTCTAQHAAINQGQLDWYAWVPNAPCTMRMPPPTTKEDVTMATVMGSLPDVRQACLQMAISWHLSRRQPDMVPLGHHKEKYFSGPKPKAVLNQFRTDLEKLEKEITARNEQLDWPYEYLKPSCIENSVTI

| SMILES | IC50 (h5-LOX) [µM] | IC50 (h12-LOX) [µM] | IC50 (h12-LOX; listed as docosahexaenoyl-CoA (22:6)) [µM] | IC50 (h12-LOX; listed as palmitoleoyl-CoA (16:1)) [µM] |
| --- | --- | --- | --- | --- |
| CCCCC/C=C\C/C=C\C/C=C\C/C=C\CCCC(=O)SCCNC(=O)CCNC(=O)[C@H](O)C(C)(C)COP(=O)(O)OP(=O)(O)OC[C@H]1O[C@@H](n2cnc3c(N)ncnc32)[C@H](O)[C@@H]1OP(=O)(O)O [Arachidonoyl-CoA (20:4), arachidonoyl-coenzyme A (20:4)] | > 200 | 110 ± 20 |  |  |
| CC/C=C\C/C=C\C/C=C\C/C=C\C/C=C\C/C=C\CCC(=O)SCCNC(=O)CCNC(=O)C(O)C(C)(C)COP(=O)(O)OP(=O)(O)OC[C@H]1O[C@@H](n2cnc3c(N)ncnc32)[C@H](O)[C@@H]1OP(=O)(O)O (some centres unmarked) [Docosahexaenoyl CoA (22:6), docosahexaenoyl-coenzyme A (22:6)] |  | > 500 | > 200 |  |
| CCCCC/C=C\C/C=C\CCCCCCCC(=O)SCCNC(=O)CCNC(=O)[C@H](O)C(C)(C)COP(=O)(O)OP(=O)(O)OC[C@H]1O[C@@H](n2cnc3c(N)ncnc32)[C@H](O)[C@@H]1OP(=O)(O)O [Linoleoyl-CoA (18:2), linoleoyl-CoA] | > 100 | > 200 |  |  |
| CCCCCCCC/C=C\CCCCCCCC(=O)SCCNC(=O)CCNC(=O)[C@H](O)C(C)(C)COP(=O)(O)OP(=O)(O)OC[C@H]1O[C@@H](n2cnc3c(N)ncnc32)[C@H](O)[C@@H]1OP(=O)(O)O [Oleoyl-CoA (18:1), oleoyl-coenzyme A (18:1)] | > 50 | 32 ± 4 |  |  |
| CCCCCC/C=C\CCCCCCCC(=O)SCCNC(=O)CCNC(=O)[C@H](O)C(C)(C)COP(=O)(O)OP(=O)(O)OC[C@H]1O[C@@H](n2cnc3c(N)ncnc32)[C@H](O)[C@@H]1OP(=O)(O)O [Palmitoleoyl-CoA (16:1), palmitoleoyl-coenzyme A (16:1)] | 2 ± 0.4 | > 500 |  | > 200 |
| CCCCCCCCCCCCCCCC(=O)SCCNC(=O)CCNC(=O)[C@H](O)C(C)(C)COP(=O)(O)OP(=O)(O)OC[C@H]1O[C@@H](n2cnc3c(N)ncnc32)[C@H](O)[C@@H]1OP(=O)(O)O [Palmitoyl-CoA (16:0), palmitoyl-coenzyme A (16:0)] | 3.3 ± 0.3 | > 200 |  |  |
| CCCCCCCCCCCCCCCCCC(=O)SCCNC(=O)CCNC(=O)[C@H](O)C(C)(C)COP(=O)(O)OP(=O)(O)OC[C@H]1O[C@@H](n2cnc3c(N)ncnc32)[C@H](O)[C@@H]1OP(=O)(O)O [Stearoyl-CoA (18:0), stearoyl-coenzyme A (18:0)] | > 50 | > 200 |  |  |
| CCCCC/C=C\C/C=C\C/C=C\CCCCC(=O)SCCNC(=O)CCNC(=O)[C@H](O)C(C)(C)COP(=O)(O)OP(=O)(O)OC[C@H]1O[C@@H](n2cnc3c(N)ncnc32)[C@H](O)[C@@H]1OP(=O)(O)O [ɣ-Linolenoyl-CoA (18:3), ɣ-linolenoyl-coenzyme A (18:3)] | > 500 | > 200 |  |  |
